What was measured:
[1] = Cytotoxicity in mouse spleen macrophages assessed as phospholipidosis; conditions: Macrophage
[2] = Intrinsic clearance in human microsomes; assay type: ADME, Microsome
[3] = target: 72 kDa type IV collagenase (Homo sapiens, UniProt P08253); assay: Inhibition of MMP2 using Mca-Pro-cyclohexyl-Ala-Gly-Nva-His-Ala- Dap(Dnp)-NH2 as substrate by fluorometric analysis; conditions: read-out: IC50
[4] = Half life in dog at 1 mg/kg, iv and 1 mg/kg, po; assay type: ADME, organism-based, Canis lupus familiaris; conditions: in vivo
[5] = Apparent permeability across basolateral to apical side in human Caco2 cells at 10 uM; assay type: ADME, cell-based; conditions: Caco-2
[6] = target: T1, A disintegrin and metalloproteinase with thrombospondin motifs 1 (Homo sapiens) (UniProt Q9UHI8); assay: Inhibition of ADAM-TS1 dimethoxyfluorescein-Ser-Pro-Leu-Ala-Gln-Ala- Val-Arg-ser-Ser-Arg-Cys-fluorescein
T1 sequence (whole entry): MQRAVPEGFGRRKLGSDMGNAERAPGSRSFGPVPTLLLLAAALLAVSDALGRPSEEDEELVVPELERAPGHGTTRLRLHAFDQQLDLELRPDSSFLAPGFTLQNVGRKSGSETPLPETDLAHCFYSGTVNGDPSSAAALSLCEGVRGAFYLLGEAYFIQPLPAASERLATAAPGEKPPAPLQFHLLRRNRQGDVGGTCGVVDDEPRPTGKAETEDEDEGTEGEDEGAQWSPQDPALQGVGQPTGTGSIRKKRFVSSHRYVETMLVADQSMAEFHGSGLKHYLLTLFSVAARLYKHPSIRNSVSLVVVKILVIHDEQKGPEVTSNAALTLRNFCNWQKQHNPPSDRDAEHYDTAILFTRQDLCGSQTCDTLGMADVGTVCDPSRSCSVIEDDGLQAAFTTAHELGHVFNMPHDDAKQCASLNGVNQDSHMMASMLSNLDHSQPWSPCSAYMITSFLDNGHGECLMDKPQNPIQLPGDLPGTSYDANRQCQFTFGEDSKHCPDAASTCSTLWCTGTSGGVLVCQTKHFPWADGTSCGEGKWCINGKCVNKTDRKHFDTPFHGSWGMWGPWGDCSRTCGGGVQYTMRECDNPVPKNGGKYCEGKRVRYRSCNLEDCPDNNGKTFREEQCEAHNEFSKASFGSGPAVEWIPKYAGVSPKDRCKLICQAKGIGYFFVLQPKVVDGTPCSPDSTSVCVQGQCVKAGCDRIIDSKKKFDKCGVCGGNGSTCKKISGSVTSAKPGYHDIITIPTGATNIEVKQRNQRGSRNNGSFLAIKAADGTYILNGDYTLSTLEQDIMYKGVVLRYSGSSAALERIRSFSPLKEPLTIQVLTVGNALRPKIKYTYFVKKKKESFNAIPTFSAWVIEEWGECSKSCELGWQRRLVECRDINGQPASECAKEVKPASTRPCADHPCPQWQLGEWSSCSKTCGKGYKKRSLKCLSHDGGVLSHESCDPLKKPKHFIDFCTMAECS

[7] = Fraction unbound in human; assay type: ADME, organism-based; conditions: in vivo
[8] = Intrinsic clearance in Sprague-Dawley rat hepatocytes assessed per 10^6 cells; assay type: ADME, cell-based, Hepatocyte; conditions: Sprague-Dawley, read-out: CLH
[9] = Apparent permeability across apical to basolateral side in human Caco2 cells at 10 uM; assay type: ADME, cell-based; conditions: Caco-2

72 kDa type IV collagenase, sequence (P08253 whole entry): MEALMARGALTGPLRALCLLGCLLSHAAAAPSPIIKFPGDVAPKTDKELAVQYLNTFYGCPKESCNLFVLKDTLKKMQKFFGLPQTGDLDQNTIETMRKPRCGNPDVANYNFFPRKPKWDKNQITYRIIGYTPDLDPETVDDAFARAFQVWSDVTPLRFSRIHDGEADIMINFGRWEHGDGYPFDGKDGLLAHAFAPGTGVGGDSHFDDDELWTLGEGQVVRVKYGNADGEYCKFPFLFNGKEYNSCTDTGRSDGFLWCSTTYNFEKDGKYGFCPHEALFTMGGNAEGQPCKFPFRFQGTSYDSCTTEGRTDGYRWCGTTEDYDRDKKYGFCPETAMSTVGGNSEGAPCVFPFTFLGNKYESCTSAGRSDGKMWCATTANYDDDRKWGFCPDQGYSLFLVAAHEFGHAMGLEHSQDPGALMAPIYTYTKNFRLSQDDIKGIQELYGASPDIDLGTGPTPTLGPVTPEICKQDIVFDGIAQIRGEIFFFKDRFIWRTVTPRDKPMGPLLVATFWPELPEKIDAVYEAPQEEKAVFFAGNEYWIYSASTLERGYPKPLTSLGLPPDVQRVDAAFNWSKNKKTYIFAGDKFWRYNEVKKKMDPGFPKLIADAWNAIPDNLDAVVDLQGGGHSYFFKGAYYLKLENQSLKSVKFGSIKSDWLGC

CN1CCC(NC(=O)c2ccc(Oc3ccc(C#C[C@]4(O)CN5CCC4CC5)cc3)cc2)CC1
EC50 [1]: 8 µM
microsomal CLint [2]: 2.6 µL/min/mg
IC50 [3]: 7.3 µM
half-life [4]: 1380 min
Papp B→A at 10 µM [5]: 7.4 ×10⁻⁶ cm/s
INH [6]: > 100 µM
fraction unbound [7]: 0.41
hepatocyte CLint [8]: < 2 µL/min/1e6 cells
Papp A→B at 10 µM [9]: 0.3 ×10⁻⁶ cm/s
